Reference: patent publication US9957264B2 (Merck Sharp & Dohme Corp., priority 2013, dated 2018)

Tests used:
[1] = biological target: JAK2 (recombinant purified GST-tagged catalytic domain) (Homo sapiens (Human), UniProt O60674); assay: Jak Biochemical HTRF Assay (JAK2); settings: [ATP] 8.5 μM
Method: (§1) Jak Biochemical HTRF Assay Protocol
The ability of compounds to inhibit the activity of JAK1, JAK2, JAK3, and Tyk2 was measured using a recombinant purified GST-tagged catalytic domain for each enzyme (Invitrogen JAK1 #M4290, JAK2 #M4290, JAK3 #M4290, Tyk2 #M4290) in an HTRF format biochemical assay. […] The basic assay protocol is as follows: First, 250 nL of diluted compounds in DMSO were dispensed into the wells of a dry 384-well Black plate (Greiner #781076) using a Labcyte Echo 555 acoustic dispenser. Subsequent reagent additions employed an Agilent Bravo. […] After equilibration, 2 μL of 10×ATP in 1× assay buffer was added to initiate the kinase reaction and the plates were shaken and then incubated at room temperature for 120 minutes. […] Plates were shaken and centrifuged and then incubated 60 minutes at room temperature and then read on a Perkin Elmer Envision (λex=337 nm, λem=665 and 615 nm, TRF delay time=20 μs). HTRF signal=10,000*665 nm reading/615 nm reading. After normalization to untreated controls, the percent inhibition of the HTRF signal at each compound concentration was calculated. The plot of percent inhibition versus the log of compound concentration was fit with a 4-parameter dose response equation to calculate IC50 values.
(§2) Final reaction conditions were:
Examples of the instant invention were evaluated in JAK1 and JAK2 in vitro binding assays as described above.

[2] = biological target: JAK1 (recombinant purified GST-tagged catalytic domain) (Homo sapiens (Human), UniProt P23458); assay: Jak Biochemical HTRF Assay (JAK1); settings: [ATP] 31.8 μM
Sequence of JAK1 (recombinant purified GST-tagged catalytic domain) (P23458 875-1153): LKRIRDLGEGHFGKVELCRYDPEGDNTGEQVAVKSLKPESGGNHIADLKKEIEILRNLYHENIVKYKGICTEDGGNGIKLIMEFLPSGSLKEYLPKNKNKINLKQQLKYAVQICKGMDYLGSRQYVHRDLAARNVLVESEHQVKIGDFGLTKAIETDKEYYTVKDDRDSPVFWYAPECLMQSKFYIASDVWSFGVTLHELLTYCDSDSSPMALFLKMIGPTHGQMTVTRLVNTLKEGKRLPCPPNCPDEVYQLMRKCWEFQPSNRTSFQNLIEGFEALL
Method: as §1
The ability of compounds to inhibit the activity of JAK1, JAK2, JAK3, and Tyk2 was measured using a recombinant purified GST-tagged catalytic domain for each enzyme (Invitrogen JAK1 #M4290, JAK2 #M4290, JAK3 #M4290, Tyk2 #M4290) in an HTRF format biochemical assay. The reactions employed a common peptide substrate, LCB-[…]-NH2 (in-house). The basic assay protocol is as follows: First, 250 nL of diluted compounds in DMSO were dispensed into the wells of a dry 384-well Black plate (Greiner #781076) using a Labcyte Echo 555 acoustic dispenser. Subsequent reagent additions employed an Agilent Bravo. […] After equilibration, 2 μL of 10×ATP in 1× assay buffer was added to initiate the kinase reaction and the plates were shaken and then incubated at room temperature for 120 minutes. At the end of the incubation, 20 μL of 2× stop buffer (streptavidin-Dylight 650 (Thermo #84547B/100 mL), Eu-tagged pY20 antibody (Perkin Elmer #AD0067), EDTA, HEPES, and Triton) was added to quench the reaction. Plates were shaken and centrifuged and then incubated 60 minutes at room temperature and then read on a Perkin Elmer Envision (λex=337 nm, λem=665 and 615 nm, TRF delay time=20 μs). HTRF signal=10,000*665 nm reading/615 nm reading. After normalization to untreated controls, the percent inhibition of the HTRF signal at each compound concentration was calculated. The plot of percent inhibition versus the log of compound concentration was fit with a 4-parameter dose response equation to calculate IC50 values.
as §2
Examples of the instant invention were evaluated in JAK1 and JAK2 in vitro binding assays as described above. The following table tabulates the JAK1 IC50 values and JAK2 IC50 values disclosed for the instant invention.

Sequence of JAK2 (recombinant purified GST-tagged catalytic domain) (O60674 849-1124): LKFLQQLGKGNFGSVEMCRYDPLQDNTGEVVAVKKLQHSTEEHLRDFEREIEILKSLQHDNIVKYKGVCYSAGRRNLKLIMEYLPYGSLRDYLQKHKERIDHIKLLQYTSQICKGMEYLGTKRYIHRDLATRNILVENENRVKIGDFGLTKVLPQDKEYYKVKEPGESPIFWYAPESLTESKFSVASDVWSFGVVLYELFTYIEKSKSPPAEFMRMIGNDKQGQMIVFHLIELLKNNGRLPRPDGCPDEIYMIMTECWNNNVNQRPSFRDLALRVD

IC50 [1]	IC50 [2]	SMILES
2.2 nM	0.22 nM	N#CC[C@]1(n2nc(Nc3ccc(Cl)cc3)c3c(=O)[nH]ccc32)CC[C@H](NCC(F)(F)F)CC1 [Example 18-11, Trans 2-(1-(3-((4-chlorophenyl)amino)-4-oxo-4,5-dihydro-1H-pyrazolo[4,3-c]pyridin-1-yl)-4-((2,2,2-trifluoroethyl)amino)cyclohexyl)acetonitrile]
0.12 nM	0.19 nM	CC(c1ccc(Nc2nn([C@]3(CC#N)CC[C@@H](C(=O)OC(C)(C)C)OC3)c3cc[nH]c(=O)c23)cc1)N1CCCC1 (single isomer, unassigned) [Example 5-211, (2S,5S)-tert-butyl 5-(cyanomethyl)-5-(4-oxo-3-((4-((S or R)-1-(pyrrolidin-1-yl)ethyl)phenyl)amino)-4,5-dihydro-1H-pyrazolo [4,3-c]pyridin-1-yl) tetrahydro-2H-pyran-2-carboxylate]
0.55 nM	0.23 nM	N#CC[C@@]1(n2nc(Nc3ccc(S(=O)(=O)N4CCC4)cc3)c3c(=O)[nH]ccc32)CCCOC1 [Example 5-105, [(3S)-3-(3-{[4-(azetidin-1-ylsulfonyl)phenyl]amino}-4-oxo-4,5-dihydro-1H-pyrazolo[4,3-c]pyridin-1-yl)tetrahydro-2H-pyran-3-yl]acetonitrile]
0.35 nM	0.12 nM	COC(=O)N1CCC(CC#N)(n2nc(Nc3ccc4c(c3)CN(CC(C)C)S4(=O)=O)c3c(=O)[nH]ccc32)CC1 [Example 5-73, methyl 4-(cyanomethyl)-4-(3-{[2-(2-methylpropyl)-1,1-dioxo-2,3-dihydro-1,2-benzothiazol-5-yl]amino}-4-oxo-1H,4H,5H-pyrazolo [4,3-c]pyridin-1-yl) piperidine-1-carboxylate]
0.15 nM	0.1 nM	CC(F)(F)C(=O)N1CCC(CC#N)(n2nc(Nc3ccc(S(=O)(=O)C(C)(C)C)cc3)c3c(=O)[nH]ccc32)CC1 [Example 5-59, 2-(4-(3-((4-(tert-butylsulfonyl)phenyl)amino)-4-oxo-4,5-dihydro-1H-pyrazolo[4,3-c]pyridin-1-yl)-1-(2,2-difluoro-propanoyl)piperidin-4-yl)acetonitrile]
0.27 nM	0.07 nM	CC(C)(C)OC(=O)[C@@H]1CC[C@@](CC#N)(n2nc(Nc3ccc(C(N)C(F)(F)F)cc3)c3c(=O)[nH]ccc32)CO1 (stereo partly drawn) [Example 5-104, (2S,5S)-tert-butyl 5-(3-((4-(1-amino-2,2,2-trifluoroethyl)phenyl)amino)-4-oxo-4,5-dihydro-1H-pyrazolo[4,3-c]pyridin-1-yl)-5-(cyanomethyl)tetrahydro-2H-pyran-2-carboxylate]
0.39 nM	0.14 nM	CN(C)S(=O)(=O)c1ccc(Nc2nn(C3(CC#N)CCN(C(=O)C4Cc5ccccc5C4)CC3)c3cc[nH]c(=O)c23)cc1 [Example 9-18, 4-({1-[4-(cyanomethyl)-1-(2,3-dihydro-1H-inden-2-ylcarbonyl)piperidin-4-yl]-4-oxo-4,5-dihydro-1H-pyrazolo[4,3-c]pyridin-3-yl}amino)-N,N-dimethylbenzenesulfonamide]
0.13 nM	0.12 nM	CC(C)(C)N[C@@H](c1ccc(Nc2nn([C@]3(CC#N)CCOC[C@@H]3F)c3cc[nH]c(=O)c23)cc1)C(F)(F)F (single isomer, unassigned) [Example 5-270, 2-((3R,4R or 3S,4S)-4-(3-((4-((S or R)-1-(tert-butylamino)-2,2,2-trifluoroethyl)phenyl)amino)-4-oxo-4,5-dihydro-1H-pyrazolo[4,3-c]pyridin-1-yl)-3-fluorotetrahydro-2H-pyran-4-yl)acetonitrile]
2.43 nM	1.13 nM	CC(C)(C)S(=O)(=O)c1ccc(Nc2nn([C@@]3(CC#N)CCOC3)c3cc[nH]c(=O)c23)cc1 (single isomer, unassigned) [Example 5-249, (S or R)-2-(3-(3-((4-(tert-butylsulfonyl)phenyl)amino)-4-oxo-4,5-dihydro-1H-pyrazolo[4,3-c]pyridin-1-yl)tetrahydrofuran-3-yl)acetonitrile]
16.8 nM	1.69 nM	CN(C)S(=O)(=O)c1ccc(Nc2nn(C3(CC#N)CCN(C(=O)c4ccccc4)CC3)c3cc[nH]c(=O)c23)cc1 [Example 9-12, 4-({1-[4-(cyanomethyl)-1-(phenylcarbonyl)piperidin-4-yl]-4-oxo-4,5-dihydro-1H-pyrazolo[4,3-c]pyridin-3-yl}amino)-N,N-dimethylbenzenesulfonamide]
1.14 nM	0.75 nM	COC(C)(c1ccc(Nc2nn([C@]3(CC#N)CC[C@@H](C(=O)OC(C)(C)C)OC3)c3cc[nH]c(=O)c23)cc1)C(F)(F)F (single isomer, unassigned) [Example 5-172, (2S,5S)-tert-butyl 5-(cyanomethyl)-5-(4-oxo-3-((4-((S or R)-1,1,1-trifluoro-2-methoxypropan-2-yl)phenyl)amino)-4,5-dihydro-1H-pyrazolo[4,3-c]pyridin-1-yl)tetrahydro-2H-pyran-2-carboxylate]
0.09 nM	0.04 nM	CN1Cc2cc(Nc3nn([C@]4(CC#N)CC[C@@H](N5CC(F)C5)CC4)c4cc[nH]c(=O)c34)ccc2S1(=O)=O [Example 18-32]
34.5 nM	11.8 nM	CC(C)(C)OC(=O)[C@H]1CC[C@@](CC#N)(n2nc(Nc3ccc([C@@H](N)C(F)(F)F)cc3)c3c(=O)[nH]ccc32)CO1 (single isomer, unassigned) [Example 5-50, (2R,5S)-tert-butyl 5-(3-((4-((R or S)-1-amino-2,2,2-trifluoroethyl)phenyl)amino)-4-oxo-4,5-dihydro-1H-pyrazolo[4,3-c]pyridin-1-yl)-5-(cyanomethyl) tetrahydro-2H-pyran-2-carboxylate]
1100 nM	120 nM	N#CC[C@]1(n2nc(Nc3ccc(OC(F)(F)F)cc3)c3c(=O)[nH]ccc32)CC[C@@H](Nc2ccccc2)CC1 [Example 18-17, Cis 2-(1-(4-oxo-3-((4-(trifluoromethoxy)phenyl)amino)-4,5-dihydro-1H-pyrazolo[4,3-c]pyridin-1-yl)-4-(phenylamino)cyclohexyl)acetonitrile]
0.27 nM	0.12 nM	CC(C)OC(=O)N1CCC(CC#N)(n2nc(Nc3ccc(S(=O)(=O)N(C)C)cc3)c3c(=O)[nH]ccc32)CC1 [Example 10-6, isopropyl 4-(cyanomethyl)-4-(3-((4-(N,N-dimethylsulfamoyl)phenyl)amino)-4-oxo-4,5-dihydro-1H-pyrazolo[4,3-c]pyridin-1-yl)piperidine-1-carboxylate]
1.56 nM	0.46 nM	N#CCC1(n2nc(Nc3ccc(C(N)C(F)(F)F)cc3)c3c(=O)[nH]ccc32)CCCC1 (single isomer, unassigned) [Example 5-88, (R or S)-2-(1-(3-((4-(1-amino-2,2,2-trifluoroethyl)phenyl)amino)-4-oxo-4,5-dihydro-1H-pyrazolo[4,3-c]pyridin-1-yl)cyclopentyl)acetonitrile]
0.38 nM	0.17 nM	CN(C)S(=O)(=O)c1ccc(Nc2nn(C3(CC#N)CCN(Cc4ccccc4)CC3)c3cc[nH]c(=O)c23)cc1 [Example 8-1, 4-({1-[1-benzyl-4-(cyanomethyl)piperidin-4-yl]-4-oxo-4,5-dihydro-1H-pyrazolo[4,3-c]pyridin-3-yl}amino)-N,N-dimethylbenzenesulfonamide]
64.2 nM	0.12 nM	N#CC[C@]1(n2nc(Nc3ccc(Cl)c(F)c3)c3c(=O)[nH]ccc32)CC[C@H](NC2CCCCC2)CC1 [Example 18-21, Trans 2-(1-(3-((4-chloro-3-fluorophenyl)amino)-4-oxo-4,5-dihydro-1H-pyrazolo[4,3-c]pyridin-1-yl)-4-(cyclohexylamino)cyclohexyl)acetonitrile]
–	0.2 nM	CN(C)S(=O)(=O)c1ccc(Nc2nn(C3(CC#N)CCN(Cc4ccc(C#N)cc4)CC3)c3cc[nH]c(=O)c23)cc1 [Example 8-5]
